Assay [1] deals with PCP recognition sites (PCP receptor). Nature of the assay: [^3 H]TCP Radioreceptor Assay (internal screen). It counts as binding. Particulars: whole rat brain membranes, [^3 H]TCP approx. 1 nM, room temperature 25 min; mean of at least two separate determinations. Here is the method: [^3 H]TCP Radioreceptor Assay (internal screen)
[^3 H]TCP binding to PCP recognition sites was performed as described by Vignon et al. Brain Research 1983, 280, 194-197. Male Spmgue-Dawley rats were sacrificed by decapitation, and whole brains were homogenized in 10 volumes (wt/vol) of cold Tris-HCl buffer (50 mM, pH 7.7) using a Brinkmann Polytron (setting 6, 30 sec). The homogenate was centrifuged at 40,000×g for 10 min at 4° C. The supernatant was decanted, and the homogenization and centrifugation steps were repeated twice as described above. Following this, the pellet was resuspended in Tris-HCl (5 mM, pH 7.7) at a tissue concentration of 0.5-0.75 g/ml, and one ml aliquots were frozen at -70° C. unto use. The binding characteristics for PCP recognition sites were not altered by the freezing of membrane suspensions.
On the day of the assay, membrane aliquots were thawed, resuspended in fresh 5 mM Tris-HCl buffer at a tissue concentration of 1 mg/ml, and stored on ice until use. Each assay tube contained 100 μl of [^3 H]TCP at a final concentration of approximately 1 nM, 100 μl of various concentrations of the compounds of interest, 500 μl of the tissue suspension and 300 μ of buffer to a final assay volume of 1 ml and a final protein concentration of 0.5 mg/tube. Non-specific binding was defined by addition of a final concentration of 100 μM PCP to blank tubes. All tubes were incubated at room temperature for 25 min before termination of the reaction by rapid filtration over Whatman GF/B glass fiber filters that had been presoaked in a solution of 0.5% polyethyleneimine for at least 1 hr prior to use. Filters were washed with three 4 ml volumes of cold Tris buffer. Following addition of scintillation cocktail, the amount of bound radioactivity was determined by liquid scintillation spectrometry using a Beckman LS 5000 TA liquid scintillation counter with an efficiency for tritium of approximately 55%. Inhibition constants (Ki values) were calculated using the EBDA/LIGAND program (McPherson, J. Pharmacol. Meth. 1985, 14, 213-228), purchased from Elsevier/Biosoft, Inc. Results are reported as Ki values which are expressed as the mean of at least two separate determinations.

For assay [2], the system named is NMDA-induced neurotoxicity in cultured cortical neurons. Nature of the assay: Antagonism of NMDA-induced Neurotoxicity in Cultured Neurons (LDH activity). It is filed as cell-based, Swiss-Webster mice. The note with it: 500 μM NMDA for 30 minutes, LDH 24 hours after removal, day 13 cultured cortical neurons. As for the experimental part: Antagonism of NMDA-induced Neurotoxicity in Cultured Neurons
Preparation of cultured cortical neurons
Pregnant, Swiss-Webster mice were obtained from Taconic 0 Farms (Germantown, N.Y.) and sacrificed 16 days post conception. Fetuses were removed and placed in a sterile dish containing Hank's balanced salt solution (HBSS), pH 7.4. Brain cortices were dissected, meninges were removed, the tissue was minced and placed into a solution of HBSS containing 0.25% (w/v) trypsin at 37° C. for 15 minutes. Tissue was then triturated with a sterile pasteur pipet, diluted with minimal essential media (Gibco 330-1430), pH 7.4, supplemented with 10% horse serum, 10% fetal calf serum, 2 mM l-glutamine, 21 mM d-glucose, 2.2 g/L sodium bicarbonate, 1000 U/ml penicillin, and 1,000 μg/ml streptomycin. Cells were plated onto Falcon primaria 96 well plates at a final density of 50,000 cells/well and incubated at 37° C. in the presence of 5% (v/v) carbon dioxide. After 5 days, plating media was replaced with maintenance media containing minimal essential media (Gibco 330-1430), pH 7.4, supplemented with 10% horse serum, […], 21 mM d-glucose, 2.2 g/l sodium bicarbonate, 1,000 U/ml penicillin, 1,000 μg/ml streptomycin, and 10 μM cytosine arabinoside. On days 7 and 10, media was replaced with maintenance media as above lacking the cytosine arabinoside. Experiments were conducted on day 13.
Neuroprotection Assessment
Day 13 cultured cortical neurons were washed twice with minimal essential media, pH 7.4 and then exposed for 30 minutes to 500 μM N-methyl-D-aspartic acid (NMDA) with or without varying concentrations of test agents. Dizocilpine (MK-801) at a final concentration of 10 μM MK-801 was routinely included as a positive control. MK-801 and test agents were prepared in minimal essential media supplemented with 21 mM d-glucose and 2.2 g/L sodium bicarbonate (MEM). After 30 minutes, media was replaced with MEM alone. Exposure of neurons to test agents was limited to the NMDA treatment period. […]

Assay [3] has as its system PCP recognition sites (PCP receptor). The assay can be described thus: [^3 H]TCP Radioreceptor Assay (external screen). It is filed as binding. Particulars: @10 μM; whole rat forebrain membranes, 25° C., 60 minutes. As for the experimental part: Representative compounds of the invention were also tested in an external [^3 H]TCP radioreceptor assay using the following protocol:
[^3 H]TCP Radioreceptor Assay (external screen)
A procedure similar to that described above for the [^3 H]TCP radioreceptor assay (internal screen) was utilized except that the whole rat forebrain membranes were incubated at 25° C. for 60 minutes rather than at room temperature for 25 minutes, before termination of the reaction. The results are reported as a percent (%) inhibition of binding at 10 μM.

Structures can show the parent of a compound that is named as a salt.

Here are results for 16 compounds from patent publication US5434159A, “6,11-cyclyl-1,2,3,4,5,6,11,11a-octahydrobenzo[b]quinolines and compositions and method of use thereof” (Sterling Winthrop Inc., priority 1994, dated 1995).

The term Ki denotes the equilibrium dissociation constant of an inhibitor or competing ligand from its target. A low value points to tighter binding. As usually defined, the IC50 is the concentration that inhibits the measured activity by half. Low readings indicate inhibition by little substance, high ones a need for much substance. “6,11 [2',3']tetrahydrofuranyl-1,2,3,4,5,6,11,11a-octahydrobenzo [b]quinolizine hydrobromide [Example 8]” returned a Ki in assay [1] of 606 nM. In assay [2], this compound registered an IC50 of 12200 nM.

In assay [1], “6,11 [2',3']tetrahydropyranyl-1,2,3,4,5,6,11,11a-octahydrobenzo[b]quinolizine hydrobromide [Example 7]” registered a Ki of 1420 nM.

`c1ccc2c(c1)C1C3CCCCC3C2N2CCCCC12` (centres unmarked) [Example 1a, 6,11 [1',2']cyclohexyl-1,2,3,4,5,6,11:11a-octahydrobenzo[b]quinolizine] returned a Ki in assay [1] of 134 nM.

Regarding `c1ccc2c(c1)C1c3ccccc3C2N2CCCCC12` (centres unmarked) [Example 1b, 6,11 [1',2']benzeno-1,2,3,4,5,6,11,11a-octahydrobenzo[b]quinolizine], in assay [1], the affinity corresponds to a Ki of 333 nM.

The compound `CC12c3ccccc3C(C3CCCC31)N1CCCCC12` (centres unmarked) [Example 2, 11-methyl-6,11 [1',2']cyclopentyl-1,2,3,4,5,6,11,11a-octahydrobenzo[b]quinolizine] returned a Ki in assay [1] of 40 nM.

The compound `Oc1ccc2c(c1)C1C3CCCC3C2C2CCCCN21` (centres unmarked) [Example 3b, 8-hydroxy-6,11 [1',2']cyclopentyl-1,2,3,4,5,6,11,11a-octahydrobenzo[b]quinolizine hydrobromide] returned a Ki in assay [1] of 27.9 nM.

In turn, `Brc1ccc2c(c1)C1C3CCCC3C2N2CCCCC12` (centres unmarked) [Example 4, 9-bromo-6,11 [1',2']cyclopentyl-1,2,3,4,5,6,11,11a-octahydrobenzo[b]quinolizine hydrobromide] gave a Ki in assay [1] of 43.7 nM.

Turning to `Fc1ccc2c(c1)C1C3CCCC3C2N2CCCCC12` (centres unmarked) [Example 5, 9-fluoro-6,11[1',2']cyclopentyl-1,2,3,4,5,6,11,11a-octahydrobenzo[b]quinolizine fumarate], the Ki in assay [1] came to 20 nM.

`Nc1ccc2c(c1)C1C3CCCC3C2N2CCCCC12` (centres unmarked) [Example 6, 9-amino-6,11 [1',2']cyclopentyl-1,2,3,4,5,6,11,11a-octahydrobenzo[b]quinolizine] displayed a Ki in assay [1] of 11.8 nM.

`c1ccc2c(c1)C1C3CCCC3C2N2CCCCC12` (centres unmarked) [Example 9a, 6,11 [1',2']cyclopentyl-1,2,3,4,5,6,11,11a-octahydrobenzo[b]quinolizine hydrobromide] yielded a Ki in assay [1] of 15.4 nM. For the same compound, the “[^3 H]TCP (external screen) Percent inhibition” value in assay [3] is on record as 100%. For the same compound, the IC50 in assay [2] (Mus musculus, Cortical neurone) amounted to 100 nM.

Consider `Oc1ccc2c(c1)C1C3CCCC3C2N2CCCCC12` (centres unmarked) [Example 10b, 9-hydroxy-6:11 [1',2']cyclopentyl-1,2,3,4,5,6,11,11a-octahydrobenzo [b]quinolizine hydrobromide], for which the inhibition constant (Ki) in assay [1] was determined as 2.31 nM. Moreover, it took 42 nM to reach half-maximal inhibition in assay [2] (Mus musculus, Cortical neurone) (IC50).

In assay [1], `c1ccc2c(c1)C1C3CCCCC3C2N2CCCCC12` (centres unmarked) [Example 11, 6,11 [1',2']cyclohexyl-1,2,3,4,5,6,11,11a-octahydrobenzo[b]quinolizine] had a Ki of 219 nM.

In assay [1], `Oc1cccc2c1C1C3CCCC3C2N2CCCCC12` (centres unmarked) [Example 12b, 10-hydroxy-6,11 [1',2']cyclopentyl-1,2,3,4,5,6,11,11a-octhydrobenzo[b]quinolizine hydrobromide] showed a Ki of 2.29 nM.

Take `CC12c3ccccc3C(C3CCCC31)C1CCCCN12` (centres unmarked) [Example 13, 6-methyl-6,11 [1',2']cyclopentyl-1,2,3,4,5,6,11,11a-octahydrobenzo [b]quinolizine]: the Ki in assay [1] is 8.87 nM.

The compound `[O-][N+]12CCCCC1C1c3ccccc3C2C2CCCC21` (centres unmarked) [Example 14, 6,11 [1',2']cyclopentyl-1,2,3,4,5,6,11,11a-octahydrobenzo[b]quinolizine-5-oxide] yielded a Ki in assay [1] of 33.1 nM.

As for `C[N+]12CCCCC1C1c3ccccc3C2C2CCCC21` (centres unmarked) [Example 15, 5-methyl-6,11 [1',2']cyclopentyl-1,2,3,4,5,6,11,11a-octahydrobenzo[b]quinolizinium bromide], the affinity in assay [1], expressed as Ki, was 22.3 nM.
